How the values were obtained:
[1] = test system: PBMC from an HIV seropositive subject; assay: Proliferative response to PHA of PBMC from HIV seropositive subjects; assay type: cell-based, human
Experimental: (§1) Proliferative assays were performed as previously described (see, for example, Hofmann, B., et al., Cell Immunol (1989) 121:336-48. Briefly, one microcurie ^3H-thymidine was added to cultures 72 hours after stimulation, and after further 24 hours, all cultures were harvested on glass fiber filters with an automatic harvesting machine (Skatron, Lierbyen, Norway), and the incorporated radioactivity was measured in a liquid scintillation counter (Beckman LS 1800) after an addition of 1.5 ml scintillation fluid.

membrane PKC activity = assay: Membrane PKC activity in PBMC; assay type: cell-based, human
Experimental: The reagents were obtained as a kit from Gibco (Grand island, N.Y.) and the manufacturer's protocol was followed. After activation, cell membrane fractions were then obtained by ultracentrifugation (100,000 g for one hour at 4° C.) of sonicated cell lysates without detergent. Membrane fractions were then sonicated in the presence of 0.05% Triton X and the specific PKC activities were determined. Specific PKC activity was determined as the difference between phosphorylation of a PKC specific substrate with and without a specific PKC inhibitor present. The specific PKC substrate was a synthetic peptide from myelin basic protein with an acetylated N-terminal glutamine. The specific PKC inhibitor was a pseudo-substrate peptide which specifically binds to the pseudo-substrate region of the regulatory domain of PKC. The reaction mixture was spotted on cellulose paper, non-bound ^32P-ATP was removed by washing, and the paper discs were counted in a β counter after addition of scintillation fluid. The amounts of lysate over which the assay was linear were determined in initial experiments. All experiments were repeated 2-5 times.

PKA = PKA (Homo sapiens, UniProt P17612); details: cited from earlier work
[2] = test system: PBMC from HIV seropositive subjects; assay: Intracellular cAMP in PBMC from HIV seropositive subjects; assay type: cell-based, human; details: 10 ng/ml for 10 min; decreased from 5.3
Experimental: The compound 2′,5′ dideoxyadenosine (ddAdo) inhibits adenylate cyclase, the enzyme responsible for the generation of cAMP, by competition for the “P”-binding site (Johnson, J Biochem (1990) 265:11595-11600). […] In one such experiment (FIG. 9A), the intracellular cAMP level decreased to normal levels within 4 hours and remained at this level when tested after 20 hours. The effect of ddAdo was compared with two other adenylate cyclase inhibitors which are naturally occurring adenosine phosphates. When used in equal concentrations, the three inhibitors gave similar reductions in intracellular CAMP levels. For example, when added in 10 ng/ml for 10 min, ddAdo decreased the CAMP levels from 5.3 pmol/10^6 PBMC to 3.6; 3′ AMP to 3.5; and 2′,3′deoxy-AMP reduced the level to 3.2 pmol/10^6 PBMC.
cAMP was determined using a commercial scintillation proximity RIA (Amersham, Arlington Heights, Ill.) following the manufacturer's protocol. PKA activity was determined using a kit from Gibco (Grand Island, N.Y.) and the manufacturer's protocol. For the cAMP assay, cells were lysed and sonicated in assay buffer (provided with the kits). Proliferative assays were performed as described above.
Further purification was achieved by reverse phase chromatography. 3 ml of above solution was applied on C18 Sep-Pak cartridge (Waters) equilibrated with water+0.1% TFA. The column was washed with H2O-TFA until absorbance at 280nm reached baseline. Bound material was eluted from the column by stepwise elution with H2O-acetonitrile-TFA mixtures. There were three peaks on elution curve at 20%, 40% and 70% acetonitrile. The effluent from the above step was rechromatographed again on C18 cartridge and yielded additional quantities of the three products. […] Fraction 2 was added in various PBS dilutions to lymphocytes from HIV seropositive subjects. cAMP was then measured on lysates of these cells after 1 hour.

normal PBMC = assay: PHA-induced proliferation of normal PBMC, 3H-thymidine uptake; assay type: cell-based, human; details: for ^3H-Thy. Incorp.: PHA alone 254.2 ± 9.0
Experimental: Peripheral blood mononuclear cells (PBMC) from healthy blood donors were isolated by Lymphoprep (Nyegaard and Co., Oslo, Norway) density gradient centrifugation. Cell cultures were prepared in Eppendorf tubes and contained 5-10×10^6 cells/ml for phosphotyrosine experiments and 2-5×10^6 cells/ml for the kinase experiments and the cAMP determinations described below. The concentration of PHA added per tube was 10 μg/ml of PHA-P (Wellcome, Beckenham, England). Phorbol 12 myristate-13 acetate (PMA) (P-8139, Sigma, St. Louis, Mo.) was dissolved in dimethylsulfoxide (DMSO) and used in optimal concentrations of 200 ng/ml. The total volume per tube was 1 ml.
as §1
The concentration of Cholera toxoid was 10-0.2 μg/ml and 8-bromoadenosine 3′,5′ cyclic monophosphate (Br-cAMP) was 40-0.2 μg/ml. […] The PTK inhibitor Tyrphostin 25 (Bimol, Plymouth, Pa.) was used in a concentration of 1.0 μg/ml. Tyrphostin 25 has more than 30 fold higher affinity for PTK than for PKC and PKA. HIV components were added to final dilutions of 108-360 μg p24 antigen/mi.
Both Cholera toxoid or Br-cAMP impaired PHA-induced cell proliferation as measured by ^3H-thymidine uptake after 3 days of culture (Table 1). The 50% impairment of proliferation induced by HIV components is similar to the 50% impairment induced by 0.63 μg/ml of Cholera toxoid or […] of Br-cAMP. The experiment confirmed that cAMP impairs PHA-induced proliferation of T lymphocytes.

PTK = details: cited from earlier work
[3] = cells not stimulated (control), without inhibitor 1.3 ± 0.2
[4] = cells stimulated by HIV, without inhibitor 3.0 ± 0.2
[5] = cells stimulated by PHA, without inhibitor 4.2 ± 1.6

Row | Compound | Proliferative response to PHA [1] | PKC membrane activity (membrane PKC activity; [3]) | PKC membrane activity (membrane PKC activity; [4]) | PKC membrane activity (membrane PKC activity; [5]) | cAMP levels [2] [pmol/10^6 PBMC] | other results
1 | N#CC(C#N)=Cc1ccc(O)c(O)c1 [T-23] | enhance proliferation |  |  |  |  | 
2 | O=S(=O)(NCCNC/C=C/c1ccc(Br)cc1)c1cccc2cnccc12 [H-89] | enhance proliferation | 6.0 ± 1.9 nM of ^32P/minute/10^6 PBMC | 12.9 ± 4.7 nM of ^32P/minute/10^6 PBMC | 9.4 ± 5.5 nM of ^32P/minute/10^6 PBMC |  | Fold higher affinity for PKA than for PKC (PKA): 660 fold
3 | Nc1ncnc2c1ncn2[C@@H]1O[C@H](CO)[C@@H](OP(=O)(O)O)[C@H]1O [3′ AMP] |  |  |  |  | 3.5 | 
4 | 2′,3′deoxy-AMP |  |  |  |  | 3.2 | 
5 | Nc1ncnc2c1nc(Br)n2[C@@H]1O[C@@H]2COP(=O)(O)O[C@H]2[C@H]1O [Br-cAMP, 8-bromoadenosine 3′,5′ cyclic monophosphate] |  | 3.9 ± 1.7 nM of ^32P/minute/10^6 PBMC | 2.2 ± 1.5 nM of ^32P/minute/10^6 PBMC | 2.1 ± 1.6 nM of ^32P/minute/10^6 PBMC |  | Concentration inducing 50% impairment of PHA-induced proliferation (normal PBMC; 3 days of culture): 200 µg/mL; Activity, percentage of activity of PHA control (normal PBMC; PHA + 100 μg/ml): 66%; ^3H-Thy. Incorp. (normal PBMC; PHA + 100 μg/ml): 168.7 ± 21.9 cpm ×10^−6; Activity, percentage of activity of PHA control (normal PBMC; PHA + 200 μg/ml): 38%; ^3H-Thy. Incorp. (normal PBMC; PHA + 200 μg/ml): 96.3 ± 14.4 cpm ×10^−6; Activity, percentage of activity of PHA control (normal PBMC; PHA + 400 μg/ml): 16%; ^3H-Thy. Incorp. (normal PBMC; PHA + 400 μg/ml): 41.6 ± 2.1 cpm ×10^−6
6 | N#CC(C#N)=Cc1cc(O)c(O)c(O)c1 [Tyrophostin-25] |  | 2.0 ± 0.9 nM of ^32P/minute/10^6 PBMC | 4.6 ± 0.0 nM of ^32P/minute/10^6 PBMC | 7.7 ± 7.7 nM of ^32P/minute/10^6 PBMC |  | Fold higher affinity for PTK than for PKC and PKA (PTK): more than 30 fold
